# Measured values from US20130309202A1, “Methods for Improving Liver Function” (The Ohio State University, priority 2012, published 2013).
# Values joined by “and” are separate entries in the source; they are usually repeats but may differ in a detail not shown here. Equal entries are not always repeated. Where two headings read alike, the source gives them in different places.
# Legend:
# [1] = test system: end stage liver disease (ESLD) patients; experiment: Model for End-Stage Liver Disease (MELD) score analysis in supplemented patients awaiting liver transplantation; format: in vivo, human
# Text: Vital organs for study included: cardiac muscle acquired from heart transplant recipients with end stage heart failure (TCP n=3, TE n=5); liver from transplant recipients with end-stage liver (TCP n=3, TE n=4); adipose acquired from abdominal adipose tissue of morbidly obese patients undergoing reconstructive plastic surgery (TCP n=4, TE n=5); and brain tissue from recalcitrant epilepsy patients requiring resection (TE n=4). Control brain samples were taken from autopsy participants donated to science and represent vitamin E concentrations of the general population, without dietary TE consumption (n=4). […] TCP gel capsules contained 200 mg of d-alpha-tocopherol. Vitamin E gel capsules were sealed in blister packs. To determine compliance, study participants mailed empty packages back to the clinic every two weeks. Participant supplementation compliance for the study was >90%. Random-effects linear regression was used to estimate the individual slope and intercepts of the MELD score pre- and post-supplementation for each subject. This was performed separately for TCP and TE supplementation groups. Random-effects regression takes into account the variability within participants due to repeated measures and the variability between participants in order to estimate the standard error. Due to the serendipitous nature of the MELD score findings the length of supplementation was not standardized between patients awaiting liver transplantation. The time scale is in days relative to beginning of the patient's vitamin E supplementation. […] The percent change in the slope from pre- to post-supplementation was calculated. Summary statistics are presented for pre- and post-slope and the percent change across TE and TCP supplementation groups. Wilcoxon rank-sum was used to test differences in slope and percent change in slope between TCP and TE. Wilcoxon signed-rank test was used to compare pre- to post-supplementation.
# [2] = human, in vivo
# [3] = Skin biopsy vitamin E concentration following oral TE supplementation, Healthy Participants Group; conditions: TE 400 mg daily, 12 wk vs baseline
# [4] = Liver vitamin E concentration, Surgical Patients Group
# [5] = Heart (cardiac muscle) vitamin E concentration, Surgical Patients Group; conditions: for Heart vitamin E concentration, 25th percentile / Heart vitamin E concentration, 50th percentile / Heart vitamin E concentration, 75th percentile / Heart vitamin E concentration, mean: 400 mg daily oral
# [6] = Abdominal adipose vitamin E concentration, Surgical Patients Group; conditions: for Adipose vitamin E concentration, 25th percentile / Adipose vitamin E concentration, 50th percentile / Adipose vitamin E concentration, 75th percentile / Adipose vitamin E concentration, mean: 400 mg daily oral
# [7] = Brain vitamin E concentration, Surgical Patients Group; conditions: for Brain vitamin E concentration, 25th percentile / Brain vitamin E concentration, 50th percentile / Brain vitamin E concentration, 75th percentile / Brain vitamin E concentration, mean: n = 4
# [8] = human, in vivo; remark: listed apart in the source
# [9] = human, in vivo; remark: listed apart in the source
# HMG-CoA reductase = target: T1, HMG-CoA reductase (Homo sapiens, UniProt P04035); conditions: hepatic enzyme responsible for cholesterol synthesis; background statement; cited from earlier work
# T1 sequence (P04035 1-888): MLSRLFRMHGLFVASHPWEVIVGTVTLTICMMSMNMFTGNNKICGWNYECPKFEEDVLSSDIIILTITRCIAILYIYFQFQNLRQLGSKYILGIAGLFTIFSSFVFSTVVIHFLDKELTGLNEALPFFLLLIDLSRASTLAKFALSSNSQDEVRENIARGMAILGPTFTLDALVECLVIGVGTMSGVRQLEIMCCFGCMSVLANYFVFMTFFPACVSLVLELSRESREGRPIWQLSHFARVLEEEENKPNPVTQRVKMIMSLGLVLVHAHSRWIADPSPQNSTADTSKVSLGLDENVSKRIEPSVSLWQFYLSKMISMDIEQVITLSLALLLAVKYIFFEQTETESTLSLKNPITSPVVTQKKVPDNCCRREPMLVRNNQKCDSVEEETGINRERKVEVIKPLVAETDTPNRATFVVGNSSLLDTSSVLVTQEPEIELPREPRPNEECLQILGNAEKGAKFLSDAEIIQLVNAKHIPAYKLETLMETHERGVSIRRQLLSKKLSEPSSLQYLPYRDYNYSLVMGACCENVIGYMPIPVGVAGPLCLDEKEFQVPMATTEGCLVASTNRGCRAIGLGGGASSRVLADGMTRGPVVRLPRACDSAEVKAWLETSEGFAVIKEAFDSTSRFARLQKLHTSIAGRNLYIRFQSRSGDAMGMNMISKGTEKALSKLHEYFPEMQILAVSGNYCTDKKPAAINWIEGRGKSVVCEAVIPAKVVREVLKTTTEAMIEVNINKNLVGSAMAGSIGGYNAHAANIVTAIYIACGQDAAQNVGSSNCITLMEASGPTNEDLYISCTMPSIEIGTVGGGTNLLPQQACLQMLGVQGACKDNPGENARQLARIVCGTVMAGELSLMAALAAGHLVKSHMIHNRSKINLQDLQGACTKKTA
# [10] = target: T2, Tocopherol transfer protein (TTP) (Homo sapiens, UniProt P49638); conditions: background statement; cited from earlier work
# T2 sequence (P49638 1-278): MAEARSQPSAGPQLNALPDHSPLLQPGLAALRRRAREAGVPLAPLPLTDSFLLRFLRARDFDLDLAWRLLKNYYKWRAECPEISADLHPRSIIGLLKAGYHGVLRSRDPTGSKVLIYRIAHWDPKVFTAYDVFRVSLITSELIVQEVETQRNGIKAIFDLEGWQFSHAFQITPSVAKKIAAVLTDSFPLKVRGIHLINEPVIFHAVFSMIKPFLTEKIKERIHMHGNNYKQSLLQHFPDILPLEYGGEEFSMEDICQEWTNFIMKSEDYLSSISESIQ
# [11] = individual patient, 400 mg daily oral
# [12] = TE supplemented, 400 mg daily oral, n = 4
# [13] = TE supplemented, 400 mg daily oral
compound,measurement,setting,value
"Cc1c(C)c2c(c(C)c1O)CC[C@@](C)(CCC[C@H](C)CCC[C@H](C)CCCC(C)C)O2 [TCP, d-alpha-tocopherol]",participants with a reduction (improvement) in MELD score,"[1]; ESLD participants, oral supplementation 400 mg daily",20%
same,MELD score Pre-supplement Intercept,"[1]; individual patient awaiting liver transplantation, before supplementation (baseline)",16.4 (2×) and 15.7 and 16.5 and 16.9
same,MELD score Post-supplement Intercept,[1]; [11],14.2 (3×) and 14.0 and 14.4
same,MELD score slope % Change (pre vs. post),[1]; [11],372% and −155% and 1028% and 619% and 598%
same,MELD score Post-supplement Slope,"[1]; individual patient, 400 mg daily oral, slope multiplied by 10,000, time in days",483 and −60 and 1139 and 702 and 712
same,MELD score Pre-supplement Slope,"[1]; individual patient, before supplementation (baseline), slope multiplied by 10,000, time in days",102 (2×) and 109 and 101 and 98
"Cc1c(C)c2c(c(C)c1O)CC[C@@](C)(CCC[C@H](C)CCC[C@H](C)CCCC(C)C)O2 [αTCP, d-alpha-tocopherol]","Brain vitamin E concentration, 25th percentile",[2],41.1 nmol/g
same,"Brain vitamin E concentration, 50th percentile",[2],43.3 nmol/g
same,"Brain vitamin E concentration, 75th percentile",[2],60.0 nmol/g
same,"Brain vitamin E concentration, mean",[2],50.5 nmol/g
Cc1c(O)cc2c(c1C)O[C@](C)(CCC[C@H](C)CCC[C@H](C)CCCC(C)C)CC2 [γTCP],"Brain vitamin E concentration, 25th percentile",[2],0.98 nmol/g
same,"Brain vitamin E concentration, 50th percentile",[2],2.51 nmol/g
same,"Brain vitamin E concentration, 75th percentile",[2],10.6 nmol/g
same,"Brain vitamin E concentration, mean",[2],5.77 nmol/g
"CC(C)=CCC/C(C)=C/CC/C(C)=C/CC[C@]1(C)CCc2cc(O)c(C)c(C)c2O1 [γTE, d-gamma-tocotrienol]",effect of oral TE supplementation on skin concentration,[3],significantly elevated
same,"liver concentration, TE supplemented compared with TCP supplemented patients",[4]; 400 mg daily,increased
same,"Liver vitamin E concentration, 25th percentile",[4]; [12],0.17 nmol/g
same,"Liver vitamin E concentration, 50th percentile",[4]; [12],0.45 nmol/g
same,"Liver vitamin E concentration, 75th percentile",[4]; [12],1.1 nmol/g
same,"Liver vitamin E concentration, mean",[4]; [12],0.61 nmol/g
same,"heart muscle level, TE supplemented compared with participants receiving TCP alone",[5]; 400 mg daily,significantly higher
same,"Heart vitamin E concentration, 25th percentile","[5]; TCP supplemented, n = 3",0.02 nmol/g
same,"Heart vitamin E concentration, 50th percentile","[5]; TCP supplemented, n = 3",0.23 nmol/g
same,"Heart vitamin E concentration, 75th percentile","[5]; TCP supplemented, n = 3",0.26 nmol/g
same,"Heart vitamin E concentration, mean","[5]; TCP supplemented, n = 3",0.17 nmol/g
same,"Heart vitamin E concentration, 25th percentile","[5]; TE supplemented, n = 5",2.07 nmol/g
same,"Heart vitamin E concentration, 50th percentile","[5]; TE supplemented, n = 5",6.70 nmol/g
same,"Heart vitamin E concentration, 75th percentile","[5]; TE supplemented, n = 5",14.4 nmol/g
same,"Heart vitamin E concentration, mean","[5]; TE supplemented, n = 5",8.85 nmol/g
same,"Adipose vitamin E concentration, 25th percentile","[6]; TCP supplemented, n = 4",0.71 nmol/g
same,"Adipose vitamin E concentration, 50th percentile","[6]; TCP supplemented, n = 4",1.72 nmol/g
same,"Adipose vitamin E concentration, 75th percentile","[6]; TCP supplemented, n = 4",3.21 nmol/g
same,"Adipose vitamin E concentration, mean","[6]; TCP supplemented, n = 4",1.96 nmol/g
same,adipose concentration relative to controls,"[6]; TE supplemented vs controls, P<0.05",~10 fold
same,"Adipose vitamin E concentration, 25th percentile","[6]; TE supplemented, n = 5",12.4 nmol/g
same,"Adipose vitamin E concentration, 50th percentile","[6]; TE supplemented, n = 5",17.1 nmol/g
same,"Adipose vitamin E concentration, 75th percentile","[6]; TE supplemented, n = 5",23.5 nmol/g
same,"Adipose vitamin E concentration, mean","[6]; TE supplemented, n = 5",17.2 nmol/g
same,"Brain vitamin E concentration, 25th percentile",[7]; TCP supplemented,0.03 nmol/g
same,"Brain vitamin E concentration, 50th percentile",[7]; TCP supplemented,0.05 nmol/g
same,"Brain vitamin E concentration, 75th percentile",[7]; TCP supplemented,0.08 nmol/g
same,"Brain vitamin E concentration, mean",[7]; TCP supplemented,0.06 nmol/g
same,"brain concentration, TE supplemented compared with control (cadaveric) brain",[7]; TE 400 mg daily,significantly elevated
same,"Brain vitamin E concentration, 25th percentile",[7]; [13],0.47 nmol/g
same,"Brain vitamin E concentration, 50th percentile",[7]; [13],0.70 nmol/g
same,"Brain vitamin E concentration, 75th percentile",[7]; [13],1.19 nmol/g
same,"Brain vitamin E concentration, mean",[7]; [13],0.83 nmol/g
"CC(C)=CCC/C(C)=C/CC/C(C)=C/CC[C@]1(C)CCc2cc(O)cc(C)c2O1 [δTE, d-delta-tocotrienol]",concentration in liver tissue relative to that found in adipose,[8],less than 10%
same,"Brain vitamin E concentration, 25th percentile",[2],0.09 nmol/g
same,"Brain vitamin E concentration, 50th percentile",[2],0.15 nmol/g
same,"Brain vitamin E concentration, 75th percentile",[2],0.17 nmol/g
same,"Brain vitamin E concentration, mean",[2],0.13 nmol/g
same,adipose concentration relative to controls,[9],~10 fold
d-alpha-tocotrienol [αTE],effect of oral TE supplementation on skin concentration,[3],significantly elevated
same,effect on activity of HMG-CoA reductase,HMG-CoA reductase,suppresses the activity
same,"affinity of TTP to bind and transport, relative to αTCP",[10],12%
same,concentration in liver tissue relative to that found in adipose,[8],less than 10%
same,"Brain vitamin E concentration, 25th percentile",[2],0.03 nmol/g
same,"Brain vitamin E concentration, 50th percentile",[2],0.04 nmol/g
same,"Brain vitamin E concentration, 75th percentile",[2],0.05 nmol/g
same,"Brain vitamin E concentration, mean",[2],0.04 nmol/g
same,adipose concentration relative to controls,[9],~10 fold
